# Measurements as given in patent US6727237B2, “Inhibitors of bacterial NAD synthetase” (priority 1998, dated 2004).
# pIC50: −log10 of the molar value.
# Target: T1, bacterial NAD synthetase enzyme (Bacillus subtilis, UniProt P08164)
# T1 sequence (P08164 2-272 limits assumed): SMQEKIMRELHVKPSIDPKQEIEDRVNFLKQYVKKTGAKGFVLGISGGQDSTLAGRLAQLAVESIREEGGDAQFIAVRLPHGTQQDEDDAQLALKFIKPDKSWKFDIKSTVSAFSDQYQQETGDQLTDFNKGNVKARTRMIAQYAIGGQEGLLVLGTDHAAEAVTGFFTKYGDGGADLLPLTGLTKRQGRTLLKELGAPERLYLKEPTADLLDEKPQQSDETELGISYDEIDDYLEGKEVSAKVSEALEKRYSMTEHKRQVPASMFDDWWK
# Assay: biochemical
# Format: biochemical
# Conditions: not given
SMILES,pIC50,inhibition at 100 µM [%],inhibition at 200 µM [%],inhibition at 50 µM [%]
CC(C)c1ccc2[nH]c(CCCCCCCCOC(=O)c3cccc([N+](C)(C)C)c3)cc2c1 [Compound 876],4.12,95.4,,
COC(=O)c1cc2cc(OCc3ccccc3)ccc2n1CCCCCCOC(=O)c1ccc[n+](C)c1 [Compound 975],4.42,55.2,,
C[N+](C)(C)c1ccc(C(=O)OCCCCCCCc2cc3cc(Oc4ccccc4)ccc3[nH]2)cc1 [Compound 887],4.60,,,
CC(=O)C=Cc1ccc(OCCCCCCCCOC(=O)Cc2ccc([N+](C)(C)C)cc2)cc1 [Compound 1081],4.17,,84,
C[N+](C)(C)c1ccc(CC(=O)OCCCCCCCCn2ccc3cc(NC(=O)c4ccccc4)ccc32)cc1 [Compound 1104],4.21,,,
CCCCc1oc2ccccc2c1C(=O)c1ccc(OCCCOC(=O)c2ccc[n+](C)c2)cc1 [Compound 1064],4.43,,92,
CC(C)c1ccc2[nH]c(CCCCCCCOC(=O)c3cccc([N+](C)(C)C)c3)cc2c1 [Compound 875],4.35,93.6,,
COC(=O)c1cc2ccccc2n1CCCCCCOC(=O)Cc1ccc([N+](C)(C)C)cc1 [Compound 983],4.60,,,92.5
C[N+](C)(C)c1ccc(C(=O)OCCCCc2cc3cc(Oc4ccccc4)ccc3[nH]2)cc1 [Compound 886],4.10,94.5,,
CC(=O)c1ccc2[nH]c(CCCCCCCCOC(=O)c3cccc([N+](C)(C)C)c3)cc2c1 [Compound 879],4.40,99.6,,
C[N+](C)(C)c1ccc(CC(=O)OCCCCCCCCOc2cccc(OC(=O)c3ccccc3)c2)cc1 [Compound 1079],4.44,,97,
CC(=O)c1ccc2[nH]c(CCCCCCCCOC(=O)c3cc[n+](C)cc3)cc2c1 [Compound 909],4.60,97.2,,

# Same assay, conditions: NAD synthetase enzyme inhibition; read-out: IC50 of Compounds
row,SMILES,pIC50
1,COC(=O)c1cc2cc(OCc3ccccc3)ccc2n1CCCCCCCOC(=O)c1ccc(CN(C)C)cc1 [Compound 1096],4.16
2,CCCCc1oc2ccccc2c1C(=O)c1ccc(OCCCCCCCCOC(=O)Cc2ccc([N+](C)(C)C)cc2)cc1 [Compound 1084],4.90

# Same assay, conditions: compound at 0.05 mM
row,SMILES,% Inhibition [%]
1,COC(=O)c1cc2cc(OCc3ccccc3)ccc2n1CCCCCCCCCOC(=O)Cc1ccc(N(C)C)cc1 [Compound 966],8.25
2,COC(=O)c1cc2ccccc2n1CCCCCCCOC(=O)Cc1ccc(N(C)C)cc1 [Compound 960],6.37

# Same assay, conditions: compound at 0.1 mM (Table 314)
row,SMILES,% Inhibition [%]
1,FC(F)(F)c1ccc2cc(CCCC[n+]3ccccc3)[nH]c2c1 [Compound 715],20.73
2,c1ccc(C(c2ccccc2)(c2ccccc2)c2ccc3[nH]c(CCCC[n+]4ccccc4)cc3c2)cc1 [Compound 337],35.94
3,Cc1ccc2[nH]c(CCC[n+]3cccc4ccccc43)cc2c1 [Compound 402],4.71
4,COC(=O)c1cc2cc(OCc3ccccc3)ccc2n1CCCCCCCCOC(=O)Cc1ccc([N+](C)(C)C)cc1 [Compound 989],54.83
5,FC(F)(F)c1ccc2[nH]c(CCCCCCC[n+]3cccc4ccccc43)cc2c1 [Compound 472],12.76
6,CN(C)c1ccc(CC(=O)OCCCCCn2ccc3cc([N+](=O)[O-])ccc32)cc1 [Compound 849],90.92
7,O=[N+]([O-])c1ccc2[nH]c(CCCCC[n+]3ccccc3)cc2c1 [Compound 332],12.27
8,O=[N+]([O-])c1ccc2[nH]c(CCC[n+]3ccc4ccccc4c3)cc2c1 [Compound 546],4.72

# Same assay, conditions: compound at 0.2 mM (Table 312A)
row,SMILES,% Inhibition [%]
1,O=[N+]([O-])c1cc([N+](=O)[O-])c2[nH]c(CCCCCCCC[n+]3ccc4ccccc4c3)cc2c1 [Compound 527],73.78
2,FC(F)(F)c1ccc2cc(CCCC[n+]3ccccc3)[nH]c2c1 [Compound 289],9.28
3,c1ccc(Oc2ccc3[nH]c(CCCCCCC[n+]4cccc5ccccc54)cc3c2)cc1 [Compound 460],4.17
4,O=[N+]([O-])c1cc([N+](=O)[O-])c2[nH]c(CCCCCCC[n+]3cccc4ccccc43)cc2c1 [Compound 418],5.95
5,O=C(O)c1ccc2[nH]c(CCCCCCC[n+]3ccc4ccccc4c3)cc2c1 [Compound 604],34.10
6,Fc1ccc2[nH]c(CCCCCCC[n+]3cccc4ccccc43)cc2c1 [Compound 454],7.95
7,Fc1cc(F)c2[nH]c(CCCCCCCC[n+]3ccccc3)cc2c1 [Compound 305],54.83
8,FC(F)(F)c1ccc2[nH]c(CCC[n+]3ccccc3)cc2c1 [Compound 360],3.46
9,O=[N+]([O-])c1cc([N+](=O)[O-])c2[nH]c(CCCCCCC[n+]3ccccc3)cc2c1 [Compound 310],38.29
10,O=C(c1ccccc1)c1ccc2[nH]c(CCCCCCCC[n+]3cccc4ccccc43)cc2c1 [Compound 467],15.08
11,Fc1cc(F)c2[nH]c(CCCC[n+]3ccc4ccccc4c3)cc2c1 [Compound 517],34.72
12,Cc1ccc2[nH]c(CCCCCCCC[n+]3ccccc3)cc2c1 [Compound 299],49.13
13,Fc1cc(F)c2[nH]c(CCCCC[n+]3ccccc3)cc2c1 [Compound 302],21.48
14,O=C(O)c1ccc2[nH]c(CCCCCCCC[n+]3cccc4ccccc43)cc2c1 [Compound 497],29.10
15,Fc1cc(F)c2[nH]c(CCCC[n+]3ccccc3)cc2c1 [Compound 301],6.12
16,CC(=O)c1ccc2[nH]c(CCCCCCC[n+]3ccccc3)cc2c1 [Compound 370],41.34
17,O=[N+]([O-])c1ccc2[nH]c(CCCCCCC[n+]3ccccc3)cc2c1 [Compound 334],41.67
18,FC(F)(F)c1ccc2cc(CCCCCCCC[n+]3ccc4ccccc4c3)[nH]c2c1 [Compound 509],78.00
19,O=[N+]([O-])c1cc([N+](=O)[O-])c2[nH]c(CCCC[n+]3ccc4ccccc4c3)cc2c1 [Compound 523],18.12
20,Fc1cc(F)c2[nH]c(CCCCC[n+]3cccc4ccccc43)cc2c1 [Compound 410],8.77
21,CCCCc1ccc2[nH]c(CCC[n+]3ccc4ccccc4c3)cc2c1 [Compound 528],65.81
22,FC(F)(F)c1ccc2cc(CCCC[n+]3ccc4ccccc4c3)[nH]c2c1 [Compound 505],25.51
23,C[n+]1cccc(C(=O)OCCCCCCCCn2ccc3cc([N+](=O)[O-])ccc32)c1 [Compound 867],70.33
24,O=C(c1ccccc1)c1ccc2[nH]c(CCCCCCC[n+]3ccccc3)cc2c1 [Compound 358],23.19
25,Fc1ccc2[nH]c(CCC[n+]3ccc4ccccc4c3)cc2c1 [Compound 558],1.27

# Same assay, conditions: compound at 0.2 mM (Table 312B)
row,SMILES,% Inhibition [%]
1,COC(=O)c1cc2cc(OCc3ccccc3)ccc2n1CCCCCCCOC(=O)c1ccc(CN(C)C)cc1 [Compound 1096],140
2,C[n+]1cccc(C(=O)OCCCCCCCCOc2ccccc2C(N)=O)c1 [compound 1060],19
3,COC(=O)c1cc2cc(OCc3ccccc3)ccc2n1CCCCCCCOC(=O)Cc1ccc([N+](C)(C)C)cc1 [compound 1105],167
4,CC(=O)Oc1cccc(OCCCCCCCCOC(=O)Cc2ccc(N(C)C)cc2)c1 [Compound 1027],2
5,O=C(OCCCCCCCCOc1ccc(C(=O)c2ccccc2)cc1)c1cccnc1 [Compound 1013],29
6,CCCCc1oc2ccccc2c1C(=O)c1ccc(OCCCCCCCCOC(=O)Cc2ccc([N+](C)(C)C)cc2)cc1 [Compound 1084],106
7,O=C(OCCCCCCCCOc1ccc([N+](=O)[O-])cc1)c1cccnc1 [Compound 995],27
8,NC(=O)c1ccc(OCCCCCCCCOC(=O)c2cccnc2)cc1 [Compound 1014],14
9,O=C(OCCCCCCCCOc1ccccc1N1CCOCC1)c1cccnc1 [Compound 1020],8
10,O=C(OCCCCCCCCOc1ccccc1N1CCCC1)c1cccnc1 [Compound 1019],3

# Same assay, conditions: compound at 0.25 mM
row,SMILES,% Inhibition [%]
1,CC(=O)c1ccc2[nH]c(CCCCOC(=O)c3ccc[n+](C)c3)cc2c1 [Compound 922],87.4
2,C[n+]1ccc(C(=O)OCCCCCCCCc2cc3cc(C(=O)c4ccccc4)ccc3[nH]2)cc1 [Compound 912],27.6
3,CC(C)c1ccc2[nH]c(CCCCOC(=O)Cc3ccc[n+](C)c3)cc2c1 [Compound 934],98.5
4,C[n+]1ccc(C(=O)OCCCCc2cc3ccc(C(F)(F)F)cc3[nH]2)cc1 [Compound 898],51.8
5,C[N+](C)(C)c1cccc(C(=O)OCCCCCCCCc2cc3ccc(C(F)(F)F)cc3[nH]2)c1 [Compound 870],63.1
6,CC(=O)c1ccc2[nH]c(CCCCOC(=O)c3cccc([N+](C)(C)C)c3)cc2c1 [Compound 877],98.3

# Same assay, conditions: lead compounds (Table 318A); read-out: IC 50
row,SMILES,pIC50
1,CN(C)c1ccc(CC(=O)OCCCCCn2ccc3cc([N+](=O)[O-])ccc32)cc1 [Compound 849],4.15
